# Test results: patent publication US20210008083A1, “USE OF A BISPHOSPHONATE SALT IN A MEDICAMENT FOR A NATURALLY OCCURRING DISEASE/DISORDER IN A MAMMAL” (Ostafit B.V., priority 2016, published 2021)
# Assays:
# [1] = system: various disorders and disease; assay: Present bisphosphonates tested on various naturally occurring disorders and diseases in mammals; design: species or system mammals (horses, donkeys, cows, dogs and cats); conditions: dog, in vivo
# Text: A repetition may be given after 4-12 months. […] In general it is noted that timing of potential benefit of antiresorptives in OA might be important. The greatest benefit in the prior art is typically seen very early in the disease. So to maintain the normal attitude mode, typically once per 1-12 month, preferably once per 2-6 months, such as once per 3-5 month, or put different 1-6 times per year, preferably 2-6 times per year, such as 3-4 times per year.
# For better understanding of these diseases and disorders, the following section is added, such as to categorize these.
# (§1) Typical symptoms for dogs and other animals mentioned in the description are lameness, stiffness, especially in the morning, after a stroll and when starting, moving with relatively short steps, a preference for lying down, no stamina, various difficulties/limitations, such as in rising or lying down, in keeping up walking pace, rising a leg, jumping on a couch, tail between the legs and squealing from pain.
# primary osteoarthritis = conditions: guinea pig model of primary osteoarthritis; cited from earlier work
# knee osteoarthritis = conditions: 2-year period; cited from earlier work
# [2] = system: osteoarthritis or similar complaints
# Experimental: (§2) The following experiments were performed during November 2015-May 2016. In various veterinarian locations in the Netherlands the animals were treated or occasionally the animals were treated on a farm in a stable.
# For cats it is preferred to provide the dosage in a subcutaneous manner.
# hip osteoarthritis = conditions: oral 35 mg once a week, 2 years; cited from earlier work
# osteoarthritis = conditions: 1 bull, 6 years, 0.2 mg/kg intravenous
# Experimental: as §2
# [3] = system: osteoarthritis or similar complaints; conditions: 24 dogs, 5-15 years, 0.20 mg/kg intravenous during about 15 min
# Experimental: as §2, §1
# [4] = system: osteoarthritis in the SI joint; conditions: one donkey, treated in line with the horses
# Experimental: as §2
# One donkey was treated in line with the horses above.
structure (smiles),measurement,setting,value
NCCC(O)(P(=O)(O)O)P(=O)(O)O [Pamidronate],outcome of testing on various disorders and disease,[1],tested on various disorders and disease with success
O=P(O)(O)C(O)(Cc1cccnc1)P(=O)(O)O [Risedronate],outcome of testing on various disorders and disease,[1],tested on various disorders and disease with success
same,effect on disease progression,primary osteoarthritis,slows disease progression
same,symptom improvement or progression of radiographic osteoarthritis vs placebo,knee osteoarthritis,no significant differences in symptom improvement or progression of radiographic osteoarthritis
"NCCCC(O)(P(=O)(O)O)P(=O)(O)O.O.O.O [Alendronate, [4-amino-1-hydroxy-1-(hydroxy-oxido-phosphoryl)-butyl]phosphonic acid trihydrate]",cats free of complaints,"[2]; eight cats, 12-18 years, 0.2 mg/kg subcutaneous or intravenous, one cat still had complaints (other medicines withdrawn)",Seven cats were free of complaints within a few weeks
same,cats showing a good response (substantially free of complaints),[2]; later experiments on more cats,more than 75%
same,outcome of testing on various disorders and disease,[1],tested on various disorders and disease with success
same,clinical efficacy on pain,hip osteoarthritis,had clinical efficacy of pain reduction
same,effect on structural progression of hip osteoarthritis,hip osteoarthritis,failed to show preventive effects for structural progression of hip osteoarthritis
same,bull free of complaints,osteoarthritis,free of complaints within a month
same,effect on disease progression,primary osteoarthritis,Risedronate but not Alendronate slows disease progression
same,complaints of dogs after treatment,[3],All dogs have significantly less complaints or were free of complaints within a few weeks
same,result of treatment in donkey,[4],results here were fine
CN(C)CCC(O)(P(=O)(O)O)P(=O)(O)O [Olpadronate],outcome of testing on various disorders and disease,[1],tested on various disorders and disease with success
O=P(O)(O)C(O)(Cn1ccnc1)P(=O)(O)O [Zoledronate],outcome of testing on various disorders and disease,[1],tested on various disorders and disease with success
NCCCCCC(O)(P(=O)(O)O)P(=O)(O)O [Nerodronate],outcome of testing on various disorders and disease,[1],tested on various disorders and disease with success
CCCCCN(C)CCC(O)(P(=O)(O)O)P(=O)(O)O [Ibandronate],outcome of testing on various disorders and disease,[1],tested on various disorders and disease with success
